# Measured values reported in patent US20080311126A1, “Antisense Oligonucleotides Directed to Ribonucleotide Reducatase R2 and Uses Thereof in Combination Therapies for the Treatment of Cancer” (Genesense Technologies, Inc, priority 2004, published 2008).
# Oligonucleotides are written 5' to 3', each unit as a sugar letter and its base; * is a phosphorothioate linkage, no mark a phosphodiester; rarer units and linkages stand in square brackets, end groups in braces. Plain capitals give the bases only. d = 2'-deoxy (DNA)
# What was measured:
# Format in all cases: cell-based, human
# [1] = tested on: T24 bladder cell carcinoma; assay: Relative colony forming efficiency (Example 17, Table 13); conditions: averages of 2-8 determinations
# Outline: (§1)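 Phosphorothioate antisense oligodeoxynucleotides, at 0.2 μM unless otherwise indicated, were applied with 2.5 μg DOTMA/DOPE (Lipofectin) for 4 h. Colonies stained with methylene blue and scored, with viability sometimes checked by trypan blue exclusion. Values given as % inhibition of colony formation relative to lipofectin-only controls.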
# [2] = tested on: T-47D breast ductal carcinoma; assay: as above; conditions: averages of 2-8 determinations
# Outline: as §1
# [3] = tested on: H596 lung adenosquamous carcinoma cells; assay: as above; conditions: averages of 2-8 determinations
# Outline: as §1
# [4] = tested on: MDA PaCa-2 pancreatic cell carcinoma; assay: as above; conditions: MIA PaCa-2 pancreatic cell carcinoma; averages of 2-8 determinations
# Outline: as §1
# [5] = tested on: PC-3 prostrate cell adenocarcinoma; assay: as above; conditions: averages of 2-8 determinations
# Outline: as §1
# [6] = tested on: MDA-MB-231 breast cell adenocarcinoma; assay: as above; conditions: averages of 2-8 determinations
# Outline: as §1
# [7] = tested on: HCT116 colon cell carcinoma; assay: as above; conditions: averages of 2-8 determinations
# Outline: as §1
# [8] = tested on: HepG2 hepatocellular carcinoma; assay: as above; conditions: averages of 2-8 determinations
# Outline: as §1
# [9] = tested on: A549 lung cell carcinoma; assay: as above; conditions: averages of 2-8 determinations
# Outline: as §1
# [10] = tested on: Hela S3 cells; assay: Relative colony forming efficiency, lipofectin +/- oligonucleotide 4 hours; conditions: Hela S3 cervix carcinoma cells; averages of 2-8 determinations
# Outline: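 HeLa S3 cells were exposed to phosphorothioate antisense oligonucleotide (0.2 μM unless stated) with lipofectin for 4 h, then grown 7–10 days in 10% FBS medium. Methylene blue-stained colonies were counted and expressed as percent survival relative to lipofectin-only controls.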
Substance,"Reduced relative colony forming efficiency, T24 (% inhibition of colony forming ability) [1]","Reduced relative colony forming efficiency, T-47D (% inhibition of colony forming ability) [2]","Reduced relative colony forming efficiency, 11596 (% inhibition of colony forming ability) [3]","Reduced relative colony forming efficiency, MIA PaCa-2 (% inhibition of colony forming ability) [4]","Reduced relative colony forming efficiency, PC-3 (% inhibition of colony forming ability) [5]","Reduced relative colony forming efficiency, MDA-MB-231 (% inhibition of colony forming ability) [6]","Reduced relative colony forming efficiency, HCT116 (% inhibition of colony forming ability) [7]","Reduced relative colony forming efficiency, HepG2 (% inhibition of colony forming ability) [8]","Reduced relative colony forming efficiency, A549 (% inhibition of colony forming ability) [9]","Reduced relative colony forming efficiency, Hela S3 (% inhibition of colony forming ability) [10]"
CCCAGGACACTACACAAGCC (antisense dC*dC*dC*dA*dG*dG*dA*dC*dA*dC*dT*dA*dC*dA*dC*dA*dA*dG*dC*dC) [AS-II-2026-20],95.46%,93.41%,84.16%,87.65%,95.29%,77.1%,81.47%,94.54%,88.81%,83.79%
CCTGTCTTCTATCTGGCACC (antisense dC*dC*dT*dG*dT*dC*dT*dT*dC*dT*dA*dT*dC*dT*dG*dG*dC*dA*dC*dC) [AS-II-1989-20],77.43%,90.83%,56.33%,70.22%,77.38%,54.9%,78.47%,80.7%,83.9%,61.41%
C*CCC*TCAC*TCC*AGC*AGC*CT*T (antisense dC*dCdCdC*dTdCdAdC*dTdCdC*dAdGdC*dAdGdC*dCdT*dT) [AS-II-109-20],24.89%,20.63%,7.28%,54.24%,61.51%,22.38%,6.76%,18.08%,15.14%,46.83%
GGCGACCCCTCACTCCAGCA (antisense dG*dG*dC*dG*dA*dC*dC*dC*dC*dT*dC*dA*dC*dT*dC*dC*dA*dG*dC*dA) [AS-II-114-20],87.45%,90.83%,46.3%,90.05%,92.66%,76.22%,86.1%,78.72%,83.51%,79.25%
GCTATTATCGCCGCCGTGAG (antisense dG*dC*dT*dA*dT*dT*dA*dT*dC*dG*dC*dC*dG*dC*dC*dG*dT*dG*dA*dG) [AS-II-1773-20],15.19%,84.38%,66.04%,45.68%,70.04%,44.76%,75.58%,58.19%,70.11%,80.27%
AGGACTGGTTGTGAGGTAGC (antisense dA*dG*dG*dA*dC*dT*dG*dG*dT*dT*dG*dT*dG*dA*dG*dG*dT*dA*dG*dC) [AS-II-1499-20],82.81%,96.67%,78.3%,81.17%,77.28%,41.26%,83.01%,77.5%,87.8%,87.56%
CGGAGGGAGAGCATAGTGGA (antisense dC*dG*dG*dA*dG*dG*dG*dA*dG*dA*dG*dC*dA*dT*dA*dG*dT*dG*dG*dA) [AS-II-189-20],18.57%,96.63%,26.15%,70.52%,73.12%,39.86%,86.78%,57.86%,76.57%,76.67%
GCAGCGAAGCAGAGCGAGCA (antisense dG*dC*dA*dG*dC*dG*dA*dA*dG*dC*dA*dG*dA*dG*dC*dG*dA*dG*dC*dA) [AS-II-166-20],68.99%,91.4%,61.99%,91.36%,74.11%,29.02%,73.84%,78.72%,81.1%,80.1%
G*CG*AAG*CAG*AGC*GAG*CAGC*C (antisense dG*dCdG*dAdAdG*dCdAdG*dAdGdC*dGdAdG*dCdAdGdC*dC) [AS-II-163-20],5.49%,9.81%,32.08%,9.88%,7.14%,22.73%,29.05%,18.64%,37.13%,45.8%
